The results in this text go back to patent publication US8569447B2, “Cell-permeable peptide inhibitors of the JNK signal transduction pathway” (Xigen SA, priority 2003, dated 2013).

Data set [1] in a line: Systolic and diastolic blood pressure after D-JNKI injection. Type of data set: in vivo, mice. The note with it: 10 minutes before until 30 minutes after injection. An excerpt: Using male ICR-CD1 mice (approximately 6 weeks old and weighing in the range of about 18 to 37 g) (Harlan, Inc.), ischemia was provoked by introducing a filament from the common carotid artery into the internal carotid artery and advancing the filament into the arterial circle, thereby occluding the middle cerebral artery. See, e.g., Huang et al., Science, 265:1883-85 (1994); Hara et al., Proc. Natl. Acad. Sci. (USA) 94:2007-12 (1997); each of which is hereby incorporated by reference in its entirety. Regional cerebral blood flow was measured by laser-Doppler flowmetry with a probe fixed on the skull throughout the ischemia and until 10 minutes after reperfusion. Rectal temperature was measured and maintained at 37° C. The animals were sacrificed 48 hours after reperfusion. Serial cryostat sections […] were traced using a computer-microscope system equipped with the Neurolucida program (Microbrightfield, Inc.), and the volumes of the ischemic area and of the whole brain were calculated (blind) with the Neuroexplorer program. Systolic and diastolic blood pressure were measured with an arterial catheter in three additional mice from 10 minutes before the D-JNKI injection until 30 minutes afterwards. […] The Guidelines of the Swiss Federal Veterinary Office were followed in all experiments.

Data set [2] is described as follows: Rotarod test of motor coordination. Type of data set: in vivo, mice. As to the method:
Typically, the high toxicity of other neuroprotective compounds has severely limited their clinical use. (See Gladstone et al., Stroke, 33:2123-36 (2002), incorporated by reference in its entirety). The ability of mice to maintain themselves on horizontal turning rotarod was used as criterion for possible side effects of different doses of D-JNKI and of a therapeutic dose of MK-801 (1 mg/Kg, a standard therapeutic dose). […] (11 and 110 mg/Kg) and icv injections of D-JNKI (2 μl containing 15.7 ng or 157 ng of D-JNKI). The i.p. injection of MK-801 (1 mg/Kg) was used as a control compound during this assessment procedure.
The mice were trained the day before and in the morning of the experimental day, in order to reduce the variability between subjects. Both training and test sessions were identical for control and injected mice. […] The mice were placed on the rotarod, which was programmed to accelerate uniformly from 4 to 40 rpm. The latency to falls for each mouse tested was recorded. The results of this assessment using the rotarod method are presented in Table 2 as median latency to fall (measured in seconds).
(In general: The rotarod test checks motor coordination on a turning rod.)

A further data set deals with recombinant JNK1α1 (Homo sapiens, UniProt P45983). Kind of data set: In vitro kinase assay with recombinant JNK1α1. In kind it is biochemical. As to the method: (§1) Cellular extracts were prepared by scraping cells in lysis buffer (20 mM Tris-acetate, 1 mM EGTA, 1% Triton X-100, 10 mM p-nitrophenyl-phosphate, 5 mM sodium pyrophosphate, 10 mM β-glycerophosphate, 1 mM dithiothreitol). 25 μg samples were incubated for 1 hour at room temperature with 1 μg GST-c-Jun (amino acid residues 1-89) and 10 μL glutathione-agarose beads (Sigma). The beads were washed four times and then resuspended in the lysis buffer described above. In vitro kinase assays were then performed using recombinant JNK1α1 and 0.5 μg of a substrate selected from the group consisting of GST-fusion proteins (e.g., GST-Jun and GST-Elk1 fusion proteins), casein and histone (Sigma). Reactions were initiated with 10 mM MgCl2 and 10 μM ATP in the presence of 5 μCi ^33P-ATP, and were incubated for 30 minutes at 30° C. The reaction products were separated by SDS-PAGE, and the gels were dried and then exposed to X-ray films (Kodak).
The terms “P-Jun” and “P-Elk1,” as used herein, refer to the radiolabeled (i.e., phosphorylated with ^33P-ATP) forms of GST-Jun and GST-Elk1 substrates, respectively.

The target of another data set is ERK2 (Homo sapiens, UniProt P28482). Kind of data set: Kinase specificity assay. The note with it: 500 μM. Type of data set: biochemical. The protocol: as §1
(§2) In vitro experiments were performed to determine the specificity of the JNKI peptides in blocking JNK activation. […] The complete list of substrates used in these experiments can be found on the world wide web at www.upstate.com/img/pdf/KinaseProfiler.pdf. […] The substrates for these kinases are ERK2:ERK1; p38:ATF2; p34, pKC, pKA:histone; and caK:caseine. […] For a discussion of other small chemical inhibitors of the Jun N-terminal kinase (JNK), See Bennett et al., Proc. Natl. Acad. Sci. (USA), 98:13681-86 (2001), hereby incorporated by reference in its entirety.

The test system of another data set is caK. Kind of data set: Kinase specificity assay. The note with it: 500 μM, substrate caseine. Type of data set: biochemical. As to the method: as §1, §2
The next data set deals with p34 (Homo sapiens, UniProt P06493). Kind of data set: Kinase specificity assay. In kind it is biochemical. The note with it: 500 μM, substrate histone. As to the method:
as §1, §2

A further data set deals with p38 (Homo sapiens, UniProt Q16539). Kind of data set: Kinase specificity assay. Type of data set: biochemical. To be noted: 500 μM, substrate ATF2. The protocol: as §1, §2
A further data set relates to pKC. Kind of data set: Kinase specificity assay. In kind it is biochemical. To be noted: 500 μM, substrate histone. As to the method: as §1
In vitro experiments were performed to determine the specificity of the JNKI peptides in blocking JNK activation. In particular, the effect of these peptides on the activity of 40 different kinases (10 μM peptides, 10 μM ATP) towards their respective substrates was tested. The complete list of substrates used in these experiments can be found on the world wide web at www.upstate.com/img/pdf/KinaseProfiler.pdf. […]

Non-standard residues stand in square brackets, D forms with d. Residues, ends and D or L forms follow the SMILES beside them.

recombinant JNK1α1, sequence (P45983 1-384 isoform P45983-2, species assumed): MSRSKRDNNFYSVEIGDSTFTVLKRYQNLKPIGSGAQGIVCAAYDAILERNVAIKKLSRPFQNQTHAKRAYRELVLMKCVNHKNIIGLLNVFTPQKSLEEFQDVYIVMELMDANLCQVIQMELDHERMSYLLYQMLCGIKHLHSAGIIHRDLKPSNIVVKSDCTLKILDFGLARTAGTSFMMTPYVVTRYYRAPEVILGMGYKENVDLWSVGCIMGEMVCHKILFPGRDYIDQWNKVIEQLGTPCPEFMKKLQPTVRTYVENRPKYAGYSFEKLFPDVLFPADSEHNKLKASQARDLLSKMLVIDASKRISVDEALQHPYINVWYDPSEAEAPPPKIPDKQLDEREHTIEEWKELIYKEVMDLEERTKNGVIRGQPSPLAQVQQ
p38, sequence (Q16539 whole entry): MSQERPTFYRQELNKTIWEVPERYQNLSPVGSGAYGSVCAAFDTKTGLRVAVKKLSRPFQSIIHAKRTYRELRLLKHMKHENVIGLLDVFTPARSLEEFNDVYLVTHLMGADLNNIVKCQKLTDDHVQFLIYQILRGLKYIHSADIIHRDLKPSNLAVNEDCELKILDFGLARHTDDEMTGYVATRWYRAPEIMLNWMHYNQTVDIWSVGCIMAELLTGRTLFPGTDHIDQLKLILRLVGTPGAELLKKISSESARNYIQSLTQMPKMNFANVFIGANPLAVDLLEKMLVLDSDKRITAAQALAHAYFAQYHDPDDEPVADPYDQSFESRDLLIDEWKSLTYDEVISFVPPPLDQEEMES
p34, sequence (P06493 whole entry): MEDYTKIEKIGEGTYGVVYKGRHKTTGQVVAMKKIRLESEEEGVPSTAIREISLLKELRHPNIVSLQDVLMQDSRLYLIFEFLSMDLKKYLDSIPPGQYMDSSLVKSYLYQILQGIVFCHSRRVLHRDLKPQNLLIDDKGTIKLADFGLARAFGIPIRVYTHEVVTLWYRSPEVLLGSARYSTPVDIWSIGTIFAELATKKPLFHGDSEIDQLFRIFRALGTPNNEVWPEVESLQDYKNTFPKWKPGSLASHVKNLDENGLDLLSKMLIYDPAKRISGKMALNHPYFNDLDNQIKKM
ERK2, sequence (P28482 whole entry, species assumed): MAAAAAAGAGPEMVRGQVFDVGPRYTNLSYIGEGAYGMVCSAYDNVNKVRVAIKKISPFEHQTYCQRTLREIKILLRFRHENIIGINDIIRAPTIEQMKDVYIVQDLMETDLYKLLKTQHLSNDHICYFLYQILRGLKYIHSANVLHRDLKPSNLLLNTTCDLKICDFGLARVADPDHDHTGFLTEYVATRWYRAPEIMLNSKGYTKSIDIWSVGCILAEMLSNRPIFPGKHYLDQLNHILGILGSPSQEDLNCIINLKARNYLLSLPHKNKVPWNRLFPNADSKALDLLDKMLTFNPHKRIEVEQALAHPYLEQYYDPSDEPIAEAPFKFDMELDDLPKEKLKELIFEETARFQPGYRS

For `CC(C)C[C@@H](NC(=O)[C@@H](Cc1ccccc1)NC(=O)[C@H]1CCCN1C(=O)[C@@H](CCC(N)=O)NC(=O)[C@H](NC(=O)[C@H]1CCCN1C(=O)[C@@H](CCCNC(=N)N)NC(=O)[C@@H](CO)NC(=O)[C@@H](CCC(N)=O)NC(=O)[C@@H](CC(=O)O)NC(=O)[C@H](N)[C@H](C)O)C(C)C)C(=O)N[C@H](CC(N)=O)C(=O)N[C@H](CC(C)C)C(=O)N[C@@H](C(=O)N[C@@H](C(=O)N1CCC[C@@H]1C(=O)N[C@H](CCCNC(=N)N)C(=O)N[C@H](CCCCN)C(=O)N1CCC[C@@H]1C(=O)N[C@H](CCCNC(=N)N)C(=O)N1CCC[C@@H]1C(=O)N1CCC[C@@H]1C(=O)N[C@H](CCCNC(=N)N)C(=O)N[C@H](CCCNC(=N)N)C(=O)N[C@H](CCCNC(=N)N)C(=O)N[C@H](CCC(N)=O)C(=O)N[C@H](CCCNC(=N)N)C(=O)N[C@H](CCCNC(=N)N)C(=O)N[C@H](CCCCN)C(=O)N[C@H](CCCCN)C(=O)N[C@H](CCCNC(=N)N)C(=O)NCC(=O)O)[C@H](C)O)[C@H](C)O` [D-JNKI, TDQSRPVQPF LNLTTPRKPR PPRRRQR RKKRG] (H-[dT][dD][dQ][dS][dR][dP][dV][dQ][dP][dF][dL][dN][dL][dT][dT][dP][dR][dK][dP][dR][dP][dP][dR][dR][dR][dQ][dR][dR][dK][dK][dR]G-OH), in data set [1], the “change of blood pressure” value was “less than 10%”. Besides, the “Median Latency to Fall” value was determined as 302 s in data set [2] (15.7 ng icv, 1 day); 345 s in data set [2] (15.7 ng icv, 6 days); 285 s in data set [2] (15.7 ng icv, 12 days); 342 s in data set [2] (15.7 ng icv, +3 hours); 210 s in data set [2] (15.7 ng icv, −1 hour); 253 s in data set [2] (157 ng icv, 1 day). Moreover, the “Median Latency to Fall” value in data set [2] (157 ng icv, 6 days) was 338 s; in data set [2] (157 ng icv, 12 days), 335 s; in data set [2] (157 ng icv, +3 hours), 200 s; in data set [2] (157 ng icv, −1 hour) it was 260 s; in data set [2] (11 mg/Kg i.p., 1 day), 372 s; in data set [2] (11 mg/Kg i.p., 6 days) it was 287 s. Also, the “Median Latency to Fall” value in data set [2] (11 mg/Kg i.p., 12 days) was determined as 418 s; in data set [2] (11 mg/Kg i.p., +3 hours) it was 221 s; in data set [2] (11 mg/Kg i.p., −1 hour), 204 s; in data set [2] (110 mg/Kg i.p., 1 day), 447 s; in data set [2] (110 mg/Kg i.p., 6 days), 416 s; in data set [2] (110 mg/Kg i.p., 12 days), 325 s. Also, the “Median Latency to Fall” value is 266 s in data set [2] (110 mg/Kg i.p., +3 hours) and 276 s in data set [2] (110 mg/Kg i.p., −1 hour). The motor impairment entry in data set [2] (at 6 and 15 days following treatment) is recorded as “no sign of motor impairment”. Also, the “motor coordination (rotarod), overall” value in data set [2] (doses of Table 2: D-JNKI i.p. and icv, MK-801 1 mg/Kg i.p.) is listed as “unimpaired”.

As a reminder, the IC50 is the concentration needed to halve the response being measured. Consider `CC(C)C[C@H](NC(=O)[C@H](CC(N)=O)NC(=O)[C@H](CC(C)C)NC(=O)[C@@H](NC(=O)[C@@H](NC(=O)[C@@H]1CCCN1C(=O)[C@H](CCCNC(=N)N)NC(=O)[C@H](CCCCN)NC(=O)[C@@H]1CCCN1C(=O)[C@@H](N)CCCNC(=N)N)[C@@H](C)O)[C@@H](C)O)C(=O)N[C@@H](Cc1ccccc1)C(=O)N1CCC[C@H]1C(=O)N[C@@H](CCC(N)=O)C(=O)N[C@H](C(=O)N1CCC[C@H]1C(=O)N[C@@H](CCCNC(=N)N)C(=O)N[C@@H](CO)C(=O)N[C@@H](CCC(N)=O)C(=O)N[C@@H](CC(=O)O)C(=O)N[C@H](C(=O)O)[C@@H](C)O)C(C)C` [L-JBD20, RPKRPTTLNL FPQVPRSQDT] (H-RPKRPTTLNLFPQVPRSQDT-OH), for which, on recombinant JNK1α1 (JNK targets ATF2, IRS-1, MADD, bcl-xl, each case, data not shown), the IC50 was around 1 µM. Further, on recombinant JNK1α1 (dose response), the “inhibition of JNK action without the TAT sequence” value was “can inhibit JNK action”. For the same compound, the “interference with activity of ERK2” value on ERK2 is “did not interfere with the activity”. Also, in the data set with caK, the “interference with activity of caK” value is recorded as “did not interfere with the activity”. The “interference with activity of p34” value on p34 is on record as “did not interfere with the activity”. For the same compound, the “interference with activity of p38” value on p38 is “did not interfere with the activity”. For the same compound, the “interference with activity of pKC” value with pKC was “did not interfere with the activity”.
